The source of these data is BindingDB's records for doi:10.1016/S0960-894X(00)80339-X (1993).

This experiment deals with Squalene monooxygenase (Sus scrofa). Put plainly: Inhibitory concentration at which 50% decrease in the activity of Squalene epoxidase in pig liver microsomes. (In general: Microsomes from liver hold many membrane-bound enzymes, among them those of drug oxidation.)

Bounds are passed on as bounds.

Usually IC50 stands for the concentration that inhibits the measured activity by half. A lower IC50 goes with greater potency. On to `CC(C)=CCC/C(C)=C/CC/C(C)=C/CC/C=C(\C)CC/C=C(\C)CCCN(C)O` [N-Methyl-N-((4E,12E,16E,20E)-4,8,13,17,21-pentamethyl-docosa-4,8,12,16,20-pentaenyl)-hydroxylamine], for which the 50% inhibitory concentration (IC50) turned out to be 13 µM.

Regarding `CC(C)=CCC/C(C)=C/CC/C(C)=C/CC/C=C(\C)CC/C=C(\C)CC/C=C/[N+](=O)[O-]` [(1E,5E,9E,13E,17E)-5,9,14,18,22-Pentamethyl-1-nitro-tricosa-1,5,9,13,17,21-hexaene], the half-inhibitory concentration (IC50) is greater than 400 µM.
